Common to all, as to assay type: cell-based
In assay [1] the test system is E. coli transformed with APH(3′)II substitution libraries. In words: Mutational scanning selection of APH(3′)II substitution libraries in E. coli. From the text: To perform mutational scanning in vivo, we cultured E. coli transformed with APH(3′)II substitution libraries in liquid media supplemented with decreasing concentrations of one of six aminoglycoside antibiotics with diverse structures and a wide range of potencies: kanamycin, ribostamycin, G418, amikacin, neomycin or paromomycin (FIG. 3). To normalize the selective pressures induced by the different antibiotics, we first established their minimum inhibitory concentrations (MICs) for E. coli transformed with “wild-type” (WT) APH(3′)II and then used 1:1, 1:2, 1:4 and 1:8 dilutions of WT MICs for the respective library selections. We note that, with the exception of G418 and amikacin, even the 1:8 dilutions were sufficient to inhibit growth of untransformed E. coli. After overnight selection, plasmids were isolated from the surviving cells and their coding regions were shotgun sequenced to compare the amino acid composition of the selected libraries to that of the original input libraries (median coverage=51,400×).
(§1) The cultures were incubated in 50 mL tubes at 37° C. with shaking for 24 hours, pelleted by centrifugation and frozen at −20° C. Plasmids were isolated from the pellets using QIAprep Spin Miniprep kits (Qiagen). Each transformation and selection was performed in duplicate, using each of the two independently generated mutant libraries.

In assay [2] the test system is E. coli expressing WT APH(3′)II. The assay can be described thus: MIC of aminoglycosides in E. coli expressing WT APH(3′)II, immediately following transformation. As to conditions: Stellar cells transformed with WT pBR322-EM7-neo, LB with carbenicillin 50 μg/mL, 24 hrs, MIC = lowest dilution with A600 < 0.025; for MIC: Escherichia coli, read-out: estimated 1:1 WT MIC. How it is done:
(§2) To determine the minimum inhibitory concentration (MIC) of each of the six aminoglycosides: kanamycin, ribostamycin, G418, amikacin, neomycin, paromomycin (Sigma-Aldrich, St. Louis, Mo.) in E. coli expressing WT APH(3′)II, Stellar cells were transformed with pBR322-EM7-neo, recovered in SOC medium (New England Biolabs (NEB), Ipswich, Mass.) at 37° C. for 1 hr, diluted 1:100 with LB and then divided into 96-well growth blocks containing LB with carbenicillin (50 μg/mL) and 2-fold serial dilutions of aminoglycosides. After growth at 37° C. with shaking for 24 hrs, the culture densities were assessed by absorbance at 600 nm (A600) using a NanoDrop 8000 (Thermo Scientific, Billerica, Mass.).
as §1

Assay [3] deals with untransformed e. coli. In words: Growth inhibition of untransformed E. coli by aminoglycoside. The settings on record: Table 2 experiment.
Assay [4] relates to E. coli transformed with APH(3′)II variants (pBR322[EM7-K1] through pBR322[EM7-K44]). The assay can be described thus: MIC of aminoglycosides in E. coli carrying synthetic APH(3′)II variants, 2-fold dilution series, A600. The settings on record: E. coli expressing the APH(3′)II variant, 2-3 independent cultures. Here is the method: as §2
To establish the substrate specificity of the synthetic APH(3′)II variants relative to WT APH(3′)II, glycerol stocks of the relevant clones (pBR322[EM7-K1] through pBR322[EM7-K44]) were streaked onto LB agar plates and cultured overnight at 37° C. Single colonies were then inoculated into 1 mL LB with 50 μg carbenicillin, incubated at 37° C. with shaking for 6 hours, diluted 1:100 into LB media, and then split into 96-well deep well plates containing LB with carbenicillin (50 μg/mL) and 2-fold serial dilutions of aminoglycosides dilution series. We note that the longer recovery in these follow-up experiments increased the absolute MICs compared to those we measured immediately following transformation).

Consider 7 molecules from US11274295B2, “Methods for generating pools of variants of a DNA template” (priority 2012, dated 2022).

With `CN[C@@H]1[C@@H](O)[C@@H](O[C@@H]2[C@@H](O)[C@H](O[C@H]3O[C@H]([C@@H](C)O)[C@@H](O)[C@H](O)[C@H]3N)[C@@H](N)C[C@H]2N)OC[C@]1(C)O` [G418], the selection pressure entry in assay [1] (at its 1:8 WT MIC) is given as “did not provide an effective selection pressure”. Also, the “estimated 1:1 WT MIC” value in assay [2] is 5 µg/mL.

The term MIC denotes the smallest concentration in the dilution series that meets the test's criterion for growth inhibition. Consider `NCC[C@H](O)C(=O)N[C@@H]1C[C@H](N)[C@@H](O[C@H]2O[C@H](CN)[C@@H](O)[C@H](O)[C@H]2O)[C@H](O)[C@H]1O[C@H]1O[C@H](CO)[C@@H](O)[C@H](N)[C@H]1O` [amikacin], for which the “lowest concentration that reliably inhibited growth of untransformed e. coli” value in assay [3] is “(*) 12.5 ug/mL was the lowest amikacin concentration that reliably inhibited growth of untransformed e. coli in this experiment. These estimated MICs therefore reflect total or near total loss of activity on both susbtrates”. For the same molecule, the selection pressure result in assay [1] (at its 1:4 and 1:8 WT MICs) is listed as “did not provide an effective selection pressure”. The minimal inhibitory concentration (MIC) in assay [2] is 10 µg/mL.

Take `NC[C@H]1O[C@H](O[C@H]2[C@H](O)[C@@H](O[C@H]3O[C@H](CO)[C@@H](O)[C@H](N)[C@H]3O)[C@H](N)C[C@@H]2N)[C@H](O)[C@@H](O)[C@@H]1O` [kanamycin]: the MIC in assay [2] is 225 µg/mL.

With `NC[C@@H]1O[C@H](O[C@H]2[C@@H](O)[C@H](O[C@@H]3[C@@H](O)[C@H](N)C[C@H](N)[C@H]3O[C@H]3O[C@H](CO)[C@@H](O)[C@H](O)[C@H]3N)O[C@@H]2CO)[C@H](N)[C@@H](O)[C@@H]1O` [paromomycin], in assay [2], the MIC was 320 µg/mL.

Turning to `NC[C@H]1O[C@H](O[C@H]2[C@H](O[C@@H]3O[C@H](CO)[C@@H](O)[C@H]3O)[C@@H](O)[C@H](N)C[C@@H]2N)[C@H](N)[C@@H](O)[C@@H]1O` [ribostamycin], in assay [2], the MIC is 2500 µg/mL.

Take neomycin: the “estimated 1:1 WT MIC” value in assay [2] was 40 µg/mL.

B1: KKA2_KLEPN_opt_K1: Wild-type aminoglycoside-3′-phosphotransferase-II (APH(3′)II) (protein, UniProt P00552 1-264, looked up)
Aminoglycoside …: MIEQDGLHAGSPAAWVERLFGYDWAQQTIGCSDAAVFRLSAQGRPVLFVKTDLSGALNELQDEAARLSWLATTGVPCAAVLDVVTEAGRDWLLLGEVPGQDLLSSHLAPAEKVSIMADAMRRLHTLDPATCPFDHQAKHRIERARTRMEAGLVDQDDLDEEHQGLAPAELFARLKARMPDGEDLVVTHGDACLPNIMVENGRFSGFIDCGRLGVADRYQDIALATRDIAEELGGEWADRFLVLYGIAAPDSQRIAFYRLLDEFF
modifications: codon-optimized
As to B1, in assay [4], the “MIC of G418” value was 50.00 µg/mL, the MIC of amikacin was determined as 25.00 µg/mL, the MIC of kanamycin worked out at 2000.00 µg/mL and the MIC of neomycin was 400.00 µg/mL. In assay [4], the MIC of paromomycin stood at 4000.00 µg/mL and the MIC of ribostamycin is 15000.00 µg/mL.
